Source: publication PMC9326219, “Design and Synthesis of 1-O- and 6′-C-Modified Heparan Sulfate Trisaccharides as Human Endo-6-O-Sulfatase 1 Inhibitors” (Frontiers in Chemistry, 2022)

What was measured:
[1] = target: T1, human endo-6-O-sulfatase 1 (Sulf-1) (Homo sapiens, UniProt Q8IWU6); assay: fluorescent 4-MUS hydrolysis assay with purified human Sulf-1; kinetic fit to competitive model (IC50 […]); format: biochemical
T1 construct: gene SULF1

[2] = target: T1, human endo-6-O-sulfatase 1 (Sulf-1); assay: fluorescent 4-MUS hydrolysis assay with purified human Sulf-1; format: biochemical

Ki [1] [µM]	IC50 [2] [µM]	SMILES
0.14		CO[C@@H]1O[C@@H](C(=O)O)[C@@H](O[C@H]2O[C@H](COS(N)(=O)=O)[C@@H](O[C@@H]3O[C@@H](C(=O)O)[C@@H](O)[C@H](O)[C@H]3OS(=O)(=O)O)[C@H](O)[C@H]2NS(=O)(=O)O)[C@H](O)[C@H]1OS(=O)(=O)O [compound 5, IdoA2OS-GlcNS6OSO2NH2-IdoA2OS-OMe]
	4.6	CO[C@@H]1O[C@@H](C(=O)O)[C@@H](O[C@H]2O[C@H](CNS(=O)(=O)O)[C@@H](O[C@@H]3O[C@@H](C(=O)O)[C@@H](O)[C@H](O)[C@H]3OS(=O)(=O)O)[C@H](O)[C@H]2NS(=O)(=O)O)[C@H](O)[C@H]1OS(=O)(=O)O [compound 6, IdoA2OS-GlcNS6NS-IdoA2OS-OMe]
